Test results as given in BigSolDB 2.1.

O=P(O)(O)c1ccccc1-c1ccccc1O
solubility (mole fraction) (in chlorobenzene, 300.97 K): 0.013
solubility (mole fraction) (in chlorobenzene, 304.47 K): 0.0149
solubility (mole fraction) (in chlorobenzene, 308.86 K): 0.0156
solubility (mole fraction) (in chlorobenzene, 313.71 K): 0.0195
solubility (mole fraction) (in chlorobenzene, 319.15 K): 0.0274
solubility (mole fraction) (in chlorobenzene, 325.56 K): 0.036
solubility (mole fraction) (in chlorobenzene, 332.4 K): 0.047
solubility (mole fraction) (in chlorobenzene, 338.93 K): 0.0597
solubility (mole fraction) (in chlorobenzene, 342.74 K): 0.07
solubility (mole fraction) (in chlorobenzene, 346.96 K): 0.0853
solubility (mole fraction) (in chlorobenzene, 349.4 K): 0.0974
solubility (mole fraction) (in chlorobenzene, 352.87 K): 0.116
solubility (mole fraction) (in chlorobenzene, 355.3 K): 0.131
solubility (mole fraction) (in water, 308.6 K): 0.000258
solubility (mole fraction) (in water, 314.7 K): 0.000336
solubility (mole fraction) (in water, 320.97 K): 0.000396
solubility (mole fraction) (in water, 332.2 K): 0.000496
solubility (mole fraction) (in water, 337.7 K): 0.000579
solubility (mole fraction) (in water, 342.4 K): 0.000688
solubility (mole fraction) (in water, 347.77 K): 0.000763
solubility (mole fraction) (in water, 352.6 K): 0.000859
solubility (mole fraction) (in water, 358.3 K): 0.000984
solubility (mole fraction) (in water, 362.37 K): 0.00115
